In US20240398814A1, “KRAS INHIBITOR AND HDAC INHIBITOR COMBINATION FOR THE TREATMENT OF CANCER” (Northwestern University, priority 2023, published 2024):

How the values were obtained:
KL LJE1 cells = test: Western blot and qRT-PCR of FGFR1, NKX2-1 and ERK phosphorylation in drug-treated KL LJE1 cells; type: cell-based, mouse; details: 13 days
Description: (§1) All cell lines were incubated at 37° C. and were maintained in an atmosphere containing 5% CO2. Cells were tested for Mycoplasma (Lonza) using manufacturer's conditions and were deemed negative. Cells were grown in Dulbecco's modified Eagles medium (DMEM) plus 10% fetal bovine serum (Gibco) and were continuously maintained under antibiotic selection for stable cell lines. Proliferation assays were performed by plating 2×10^3 cells per well of a 6-well plate, and cells were counted 5 days post-plating. Drug treatments were carried out using the following doses: entinostat 1 uM or 2 uM, RGFP966 10uM, TSA 0.5 uM, BRD3308 5 uM, trametinib 5 nM, 10 nM, and 25 nM, and MRTX1133 10 nM, 25 nM, and 50 nM, as indicated for the indicated treatment lengths. Media was changed and fresh drug added every 2 days.
(§2) mRNA was prepared using the Quick-RNA Miniprep kit (Zymo Research), including DNase treatment. cDNA was synthesized from 2 μg of RNA using SuperScript III (Life Technologies), and qPCR was carried out with diluted cDNA, appropriate primers, and SYBR Green PCR master mix (ThermoFisher Scientific) using a C1000 Thermal Cycler (BioRad). Relative mRNA levels were calculated using the delta Ct method, using Tbp as an internal control.
Protein lysates in CST buffer (20 mM Tris pH 7.5, 150 mM NaCl, 1% Triton X-100, 50 mM NaF, 1 mM EDTA, 1 mM EGTA, 2.5 mM PyroPhosphate, 2 mM beta-glycerol-phosphate, 1 mM orthovanadate, 0.01 mM Calyculan A) with protease inhibitors were equilibrated for protein levels using a BCA protein assay kit (Pierce), resolved on 8% SDS-PAGE gels, and transferred to membrane. Membranes were blocked in milk, incubated o/n at 4C in diluted primary antibody, washed with TBS-T, incubated 1 hr in secondary antibody diluted in TBS-T plus milk, washed in TBS-T, and developed using SuperSignal ECL. Secondary antibodies: anti-rabbit (Millipore AP132P) and anti-mouse (Millipore AP124P). Nuclear fractions were isolated using a NE-PER nuclear and cytoplasmic extraction kit (Thermofisher) under manufacturers conditions.

A549 cells = test: qRT-PCR of chemokine gene expression in A549 cells; type: cell-based, human; details: 2 uM entinostat 3 days, 5 uM BRD3308 4 days
Description: as §1, §2

KL lung tumors = test: 6-week in vivo entinostat and trametinib treatment, flow cytometry immune profiling; design: species or system mouse; details: 6 weeks; percentage of total CD45+ cells
Description: The 6-week duration study was carried out according to the same experimental design except for the following: To ensure an extended treatment duration, treatment was initiated after tumor burden was detected by BLI in >30% of mice in the study. Entinostat was administered at a dose of 10 mg/kg to assess systemic drug impact at a dose corresponding to potent tumor growth control. Because mice were gavaged twice daily for an extended duration, an additional drug holiday was built into the dosing schedule starting after 3 weeks of treatment; mice were administered drug using the following schedule: 4 days on, 1 day off, 1 day on, and 1 day off (imaging day).
Tumor digestion and cell isolation: Lungs were removed from the chest, washed with PBS, dried on paper towels and then tumor nodules were excised from adjacent tissue and both adjacent tissue and nodules were weighed. Nodules or adjacent tissue was minced into small pieces and suspended in digestion media consisting of RPMI 1640 with 2% FBS, 0.5 ug/mL of DNase I and 1 unit/mL collagenase Type I (Sigma-Aldrich Cat #0000137295) and placed in an incubator at 37° C. for 45 minutes, shaking once during digestion. […]

Nc1ccccc1NC(=O)c1ccc(CNC(=O)OCc2cccnc2)cc1 [entinostat]
FGFR1 protein (KL LJE1 cells; Western blot, 10 nM trametinib, 1 uM entinostat): neither FGFR1 protein or mRNA levels were impacted | FGFR1 mRNA levels (KL LJE1 cells; qRT-PCR, 1 uM entinostat alone): neither FGFR1 protein or mRNA levels were impacted | chemokine (SASP) gene expression (A549 cells): induced the expression of these genes | gMDSCs in lung tumors (KL lung tumors): No changes were observed
